In patent US8304438B2, “Heteroarylacrylamides and their use as pharmaceuticals” (Sanofi, priority 2006, dated 2012) one finds EC50 data, which are given here for eleven compounds.

This test deals with eNOS promoter. Put plainly: Activation of eNOS transcription (eNOS promoter firefly luciferase reporter gene assay). In kind it is cell-based. Particulars: human endothelial cell line stable transfected with eNOS promoter-luciferase construct; 18 h incubation; EC50 determined graphically; read-out: EC50 values of transcription induction ratios (TIR). As to the method:
Activation of eNOS transcription was measured as described in detail by L^1 et al., “Activation of protein kinase C alpha and/or epsilon enhances transcription of the human endothelial nitric oxide synthase gene”, Mol. Pharmacol. 53 (1998) 630. Briefly, a 3.5 kB long fragment 5′ of the starting codon of the eNOS gene was cloned, sequenced and cloned in firefly luciferase expression plasmids to monitor activation of the eNOS promoter by reporter gene activity. A human endothelial cell line stable transfected and expressing this promoter-reporter construct was used for compound testing. Cells were incubated for 18 h with the compounds.
All compounds were dissolved in sterile dimethyl sulfoxide (DMSO). A final concentration of 0.5% DMSO in complete medium was allowed. Induction of reporter gene expression in these cells was measured using a standard luciferase assay system (Promega, Cat. No. E150) according to the manufacturer's instructions. Luciferase induction in cells incubated with compounds were compared to those incubated with solvent alone. The ratio of both activities (transcription induction ratio, TIR) was plotted as a function of compound concentration. Typically, TIR values started at low concentrations at a ratio of 1, indicating no compound effect, and extended up to a maximum TIR value TIR(max) which indicates the increase of the eNOS transcription. EC50 values of transcription induction ratios as a function of compound concentration were determined graphically.

Molecules are shown by their SMILES. Structures can show the parent of a compound that is named as a salt.

For `O=C(/C=C/c1cnc2ccccc2c1)N1CCCCC1` [Example 1, 1-(Piperidin-1-yl)-3-(quinolin-3-yl)-propenone], the EC50 lay in the range of 500 to 5000 nM.
Under `O=C(/C=C/c1ccc(-c2ccccc2OC(F)(F)F)o1)N1CCCCC1` [Example 13, 1-(Piperidin-1-yl)-3-[5-(2-trifluoromethoxy-phenyl)-furan-2-yl]-propenone] stands 500 to 5000 nM.
Turning to `O=C(/C=C/c1cc(-c2ccccc2F)cs1)N1CCCCC1` [Example 15, 3-[4-(2-Fluoro-phenyl)-thiophen-2-yl]-1-(piperidin-1-yl)-propenone], the EC50 is below 500 nM.
Consider `O=C(/C=C/c1ccc(Oc2ccc(F)cc2)nc1)N1CCCCC1` [Example 76, 3-[6-(4-Fluoro-phenoxy)-pyridin-3-yl]-1-(piperidin-1-yl)-propenone Trifluoroacetic Acid Salt], for which the EC50 lay in the range of 500 to 5000 nM.
Turning to `C/C(=C\C(=O)N(C)C)c1ccc(-c2ccccc2F)nc1` [Example 110, 3-[6-(2-Fluoro-phenyl)-pyridin-3-yl]-but-2-enoic Acid Dimethylamide Trifluoroacetic Acid Salt], the EC50 was below 500 nM.
On to `O=C(/C=C/c1nc(-c2ccc(F)cc2)cs1)Nc1ccccn1` [Example 116, 3-[4-(4-Fluoro-phenyl)-thiazol-2-yl]-N-(pyridin-2-yl)-acrylamide], for which the EC50 lay in the range of 500 to 5000 nM.
With `C/C(=C\C(=O)N1CCCCC1)c1cc(-c2ccccc2F)cs1` [Example 123, 3-[4-(2-Fluoro-phenyl)-thiophen-2-yl]-1-(piperidin-1-yl)-but-2-en-1-one], the EC50 is 500 to 5000 nM.
In the case of `O=C(/C=C/c1ccc(-c2cc3ccccc3s2)nc1)N1CCCCC1` [Example 125, 3-(6-(Benzo[b]thiophen-2-yl)-pyridin-3-yl)-1-(piperidin-1-yl)-propenone], the EC50 was 500 to 5000 nM.
`CC(C)N(C(=O)/C=C/c1nc(-c2ccc(F)cc2)cs1)C(C)C` [Example 145, 3-[4-(4-Fluoro-phenyl)-thiazol-2-yl]-N,N-diisopropyl-acrylamide]: the EC50 is below 500 nM.
As to `CC(C)(C)NC(=O)/C=C/c1nc(-c2ccc(F)cc2)cs1` [Example 146, N-tert-Butyl-3-[4-(4-fluoro-phenyl)-thiazol-2-yl]-acrylamide], the EC50 was below 500 nM.
As for `O=C(/C=C/c1ccc(-c2ccccc2F)s1)Nc1ccccc1` [Example 150, 3-[5-(2-Fluoro-phenyl)-thiophen-2-yl]-N-phenyl-acrylamide], the EC50 fell in the range of 500 to 5000 nM.
